Assay results as given in patent publication US20250161377A1, “COMPOSITION COMPRISING AT LEAST ONE BIFIDOBACTERIUM STRAIN FOR THE TREATMENT OF VITILIGO” (INSTITUT NATIONAL DE LA SANTE ET DE LA RECHERCHE MEDICALE, priority 2022, published 2025).

System: Primary human keratinocytes (NHK)
Assay: Mitochondrial ROS in keratinocytes, dihydrorhodamine labeling quantified by FACS
Format: cell-based
Conditions: NHK pretreated one hour, basal untreated = 100
Procedure: Primary human keratinocytes (NHK) were isolated from the foreskin of healthy children and cultured in a serum-free medium supplemented with bovine pituitary extract (250 μg/mL) and EGF (0.25 ng/mL). The NHKs are then seeded onto 6-well plates and incubated in a controlled atmosphere. When the keratinocytes reach 70 to 80% confluence, the cells are pretreated, or not, for one hour with various components. As a positive control, the NHKs are pretreated for one hour with […] (100 μM). The plates are then washed 3 times with a PBS solution before incubating the pretreated NHKs for one hour in the presence of H2O2 (100 μM) or LPS (100 ng/mL). At the end of the incubation, the cells are incubated in a solution of dihydrorhodamine (5 μM) for 30 minutes at 37° C., which allows for the labeling of ROS, particularly mitochondrial ROS. After 3 washes with a PBS solution, the mitochondrial ROS are quantified by FACS.

Question: Which “Mitochondrial ROS Level (%)” value (no stress treatment (—), sinapine 100 μM) does the source give for Sinapine here?
Answer: The value was 100%.

Question: And the “Mitochondrial ROS Level (%)” value (then H2O2 (100 μM) one hour, H2O2 alone = 352)?
Answer: Its value is 100%.

Question: And the “Mitochondrial ROS Level (%)” value (then LPS (100 ng/mL) one hour, LPS alone = 124)?
Answer: Its value is 97%.
